Patent US7153885B2, “Stolonoxides” (Universidad de Cadiz, priority 2000, dated 2006)
Values after ≈ are worked out from the molar mass of the structure shown.

Columns and labels:
Type in all cases: cell-based
[1] = system: A-549 (monolayer culture of a human lung carcinoma); experiment: Antitumour screening, A-549 cell growth (crystal violet); details: approximate IC50, three days of incubation
Method: (§1) Cell Cultures. Cells were maintained in logarithmic phase of growth in Eagle's Minimum Essential Medium, with Earle's Balanced Salts, with 2.0 mM L-glutamine, with non-essential amino acids, without sodium bicarbonate (EMEM/neaa); supplemented with 10% Fetal Calf Serum (FCS), 10^−2 M sodium bicarbonate and 0.1 g/l penicillin-G+streptomycin sulfate.
(§2) A simple screening procedure has been carried out to determine and compare the antitumour activity of these compounds, using an adapted form of the method described by Bergeron et al (1984). The tumour cell line employed were P-388 (suspension culture of a lymphoid neoplasm from DBA/2 mouse), A-549 (monolayer culture of a human lung carcinoma), HT-29 (monolayer culture of a human colon carcinoma) and MEL-28 (monolayer culture of a human melanoma).
(§3) A-549, HT-29 and MEL-28 were seeded into 16 mm wells at 2×10^4 cells per well in 1 ml aliquots of MEM 10FCS containing the indicated concentration of drug. A separate set of cultures without drug was seeded as control growth to ensure that cells remained in exponential phase of growth. All determinations were carried out in duplicate. After three days of incubation at 37° C., 10% CO2 in a 98% humid atmosphere, the wells were stained with 0.1% Crystal Violet. An approximate IC50 was determined by comparing the growth in wells with drug to the growth in wells control.

[2] = system: P-388 (suspension culture of a lymphoid neoplasm from DBA/2 mouse); experiment: Antitumour screening, P-388 cell growth (adapted Bergeron method); details: approximate IC50, three days of incubation, growth vs control wells
Method: as §1, §2
as §3, with “P-388 cell” for “A-549, HT-29 and MEL-28”, “1×10^4” for “2×10^4”, “5FCS” for “10FCS”, “an” for “the wells were stained with 0.1% Crystal Violet. An”, “contol.” for “control.”

[3] = system: HT-29 (monolayer culture of a human colon carcinoma); experiment: Antitumour screening, HT-29 cell growth (crystal violet); details: approximate IC50, three days of incubation
Method: as §1, §2, §3

[4] = system: MEL-28 (monolayer culture of a human melanoma); experiment: Antitumour screening, MEL-28 cell growth (crystal violet); details: approximate IC50, three days of incubation
Method: as §1, §2, §3

Compound | IC50 ([1]; Homo sapiens, A549, 72 h) [µg/mL] | IC50 ([2]; Mus musculus, P388, 72 h) [µg/mL] | IC50 ([3]; Homo sapiens, HT-29, 72 h) [µg/mL] | IC50 A 549 [1] [µg/mL] | IC50 P 388 [2] [µg/mL] | IC50 HT 29 [3] [µg/mL] | IC50 MEL 28 [4] [µg/mL]
C=CCC/C=C\C=C/CCCCCC[C@H]1CC[C@@H]([C@H]2CC[C@@H](CC(=O)OC)OO2)O1 [Methyl ester (1b), Stolonoxide A methyl ester] | 0.1 (≈ 0.238 µM) | 0.1 (≈ 0.238 µM) | 0.1 (≈ 0.238 µM) |  |  |  | 
Stolonoxide B methyl ester [Methyl ester (2b)] |  |  |  | 0.1 | 0.5 | 0.1 | 0.5
